Here are results for 1 compound from patent US11478496B2, “Treatments of prostate cancer” (THE FLORIDA INTERNATIONAL UNIVERSITY BOARD OF TRUSTEES, priority 2020, dated 2022).

In data set [1] the test system is BER reconstituted with purified Pol β, FEN1, and LIG I. As to the kind of experiment: Secondary gel-based BER assay reconstituted with purified core BER enzymes. It is filed as biochemical. Conditions: 10 μM compound, THF substrate. How it is done: The secondary screening assay was performed as described below in the “Materials and Methods” section. Lane 1 represents the substrate only. Lane 2 indicates the reaction mixture with 5 nM APE1. Lanes 3 and 4 correspond to the reaction mixture with 5 nM APE1, 10 nM pol β, 10 nM FEN1 and 20 nM LIG I in the absence and presence of dimethylsulfoxide (DMSO). Lanes 5 through 19 correspond to the reaction mixture with 5 nM APE1, 10 nM pol β, 10 nM FEN1 and 20 nM LIG I in the presence of indicated compounds. The experiments were repeated at least three times. A representative gel is illustrated.
The hit compounds were subject to secondary assays to determine their ability to reduce the BER capacity when reconstituted with purified core BER enzymes, as well as their inhibitory effects on individual BER enzymes including pol FEN1 and LIG I. The effect of hit compounds on BER capacity and BER enzymes was examined using a denaturing sequencing gel-based assay. 10 μM hit compounds were incubated with 10 nM pol β, 10 nM FEN1 and 20 nM LIG I in BER reaction buffer containing 50 mM Tris-HCl (pH 7.5), 50 mM KCl, 0.1 mM EDTA, 0.1 mg/ml bovine serum albumin, and 0.01% Nonidet P-40 in the presence of 5 mM Mg^2+ and 2 mM ATP. The compounds were initially preincubated with a BER enzyme at varying concentrations for 1 h with rotation. This was followed by the addition of 25 nM ^32P-labeled substrate containing an abasic site, which was precut with 25 or 50 nM APEI. The reaction mixture (20 μL) was incubated at 37° C. for 30 min, and the reaction was terminated by 50 mM EDTA. Substrates, products, and unrepaired BER intermediates were separated by 15% urea-denaturing sequencing gel and detected by a Pharos FX Plus PhosphorImager (Bio-Rad, Hercules, Calif.).
Among the 26 identified compounds, nine were DNA intercalators or inhibitors of human DNA topoisomerases and were excluded from further studies. Thus, […] FDA approved drugs were selected for further testing. To further confirm the inhibitory effects of the lead compounds on BER, the effects of the compounds on BER reactions reconstituted with purified BER core enzymes were initially determined.

A further data set concerns LAPC4 cells. The data set is described as follows: Cell Titer Glo cell viability assay, LAPC4. It is filed as cell-based, human. As to conditions: 10 μM; androgen depleted conditions (CSS); 24 and 48 h. As for the experimental part: FIGS. 3A-3B show cellular toxicity of the lead compounds in androgen-dependent prostate cancer cell lines. (3A) LNCaP cells were plated in a 96-well plate at 1×10^4 cells/well in the presence of Fetal Bovine Serum (FBS) or Charcoal stripped Serum (CSS). Cells were allowed to attach overnight and were treated with either vehicle (DMSO) or 10 μM of indicated compound. At 24 and 48 h cellular viability was compared using the Cell Titer Glo Luminescent Cell Viability kit. (3B) LAPC4 cells were plated in a 96-well plate at a density of 1×10^4 cells/well in the presence of FBS or CSS. Cells were allowed to attach overnight and treated with 10 μM of indicated compound.
Cell viability was determined using the Cell Titer Glo Cell Viability Assay (Promega, Madison, Wis.), as recommended by manufacturer. All experiments were performed in quadruplicate.
For orientation: Cellular ATP, detected with luciferase, serves as a proxy for viable cell number.

In another data set the test system is PNT1A cells. The data set is described as follows: RTCA impedance proliferation assay, PNT1A. As to conditions: 10 μM. It is filed as cell-based. As for the experimental part:
(6A-6B) PNT1A cells were plated onto xCelligence E-plates at 5×10^4 cells per well in media supplemented with 10% FBS (6A) or CSS (6B). Cells were allowed to attach overnight and treated with vehicle (DMSO) or 10 μM of indicated compounds. Cellular impedance was monitored continuously with 30 min intervals. (6C) RWPE1 cells were plated at 5×10^4 cells per well in serum free medium supplemented with Epidermal Growth Factor (EGF) and Bovine Pituitary Extract ([…]) onto E-plates and treated with 10 μM of indicated compounds as indicated. […] Background impedance was established after incubating E-plates (Acea Biosciences, San Diego, Calif.) with 50 μL media at room temperature for 30 min and placed in RTCA. Cells were then seeded in 100 μL per well. Cells attached overnight and then treated. During attachment stage and after treatment impedance was measured every 30 min. Impedance is represented by cell index and is calculated as follows: CI=(Zi−Zo)/15Ω where Zi is impedance at an individual time point, and Zo is the background impedance. Average CI was calculated from four wells per treatment at each time point and normalized to the impedance immediately after compound addition.

The target in a further data set is LIG I (Homo sapiens, UniProt P18858). As to the kind of experiment: LIG I activity on nicked substrate. The class given is biochemical. As to conditions: 5 nM LIG I. How it is done: (§1) Lane 1 represents the substrate only. Lanes 2 and 3 indicates the reaction mixture with 5 nM LIG I in the absence and presence of DMSO. […] The substrate was ^32P-labeled at the 5′-end of the upstream strand and is illustrated above the gel. The experiments were repeated at least three times. Representative gel is illustrated. Quantification of the results is shown below the gel. Two-way ANOVA with Tukey's multiple comparison posttests was used to determine statistically significant differences. * signifies p<0.05 compared to the control reaction with LIG I and DMSO. […] Lane 1 represents the substrate only. Lanes 2 and 3 indicates the reaction mixture with 5 nM pol β in the absence and presence of DMSO. […] The substrate was ^32P-labeled at the 5′-end of the upstream strand and is illustrated above the gel. The experiments were repeated at least three times. Quantification of the results are shown below the gel. Two-way ANOVA with Tukey's multiple comparison posttests was used to determine statistical significance. * signifies p<0.05 compared to the control reaction with pol β and DMSO.
(§2) BER reactions were terminated by adding 2× stopping buffer containing 95% formamide and 10 mM EDTA. Reaction mixtures were then denatured at 95° C. for 5 min and separated by 15% urea-denaturing polyacrylamide gel electrophoresis. Substrates and products were detected and analyzed using a Pharos FX Plus PhosphorImager (Bio-Rad, Hercules, Calif.).

Another data set concerns LAPC4 xenograft. The source says: Human prostate cancer cell line LAPC4 is used to implant into immunocompromised NOD scid male mice. Once tumor sizes reach 0.5 cm^3, the mice are separated into two groups. […] At the end of the 4-week treatment, mice are euthanized. Their tumors are excised and weighed. Tumors, samples of adjacent nonmalignant tissues, and prostates are collected for comparative analysis.
A portion of the tumor is used for RNA-Seq (RNA sequencing) analysis to reveal the presence and quantity of the entire set of RNA present in these cells.
These measurements are performed using a fluorescence-based in situ DNA damage and repair assay.

The target of a further data set is pol β (Homo sapiens, UniProt P06746). As to the kind of experiment: Pol β DNA synthesis on 1-nt gap substrate. It is filed as biochemical. How it is done: as §1, §2

Chain of LIG I (P18858 whole entry): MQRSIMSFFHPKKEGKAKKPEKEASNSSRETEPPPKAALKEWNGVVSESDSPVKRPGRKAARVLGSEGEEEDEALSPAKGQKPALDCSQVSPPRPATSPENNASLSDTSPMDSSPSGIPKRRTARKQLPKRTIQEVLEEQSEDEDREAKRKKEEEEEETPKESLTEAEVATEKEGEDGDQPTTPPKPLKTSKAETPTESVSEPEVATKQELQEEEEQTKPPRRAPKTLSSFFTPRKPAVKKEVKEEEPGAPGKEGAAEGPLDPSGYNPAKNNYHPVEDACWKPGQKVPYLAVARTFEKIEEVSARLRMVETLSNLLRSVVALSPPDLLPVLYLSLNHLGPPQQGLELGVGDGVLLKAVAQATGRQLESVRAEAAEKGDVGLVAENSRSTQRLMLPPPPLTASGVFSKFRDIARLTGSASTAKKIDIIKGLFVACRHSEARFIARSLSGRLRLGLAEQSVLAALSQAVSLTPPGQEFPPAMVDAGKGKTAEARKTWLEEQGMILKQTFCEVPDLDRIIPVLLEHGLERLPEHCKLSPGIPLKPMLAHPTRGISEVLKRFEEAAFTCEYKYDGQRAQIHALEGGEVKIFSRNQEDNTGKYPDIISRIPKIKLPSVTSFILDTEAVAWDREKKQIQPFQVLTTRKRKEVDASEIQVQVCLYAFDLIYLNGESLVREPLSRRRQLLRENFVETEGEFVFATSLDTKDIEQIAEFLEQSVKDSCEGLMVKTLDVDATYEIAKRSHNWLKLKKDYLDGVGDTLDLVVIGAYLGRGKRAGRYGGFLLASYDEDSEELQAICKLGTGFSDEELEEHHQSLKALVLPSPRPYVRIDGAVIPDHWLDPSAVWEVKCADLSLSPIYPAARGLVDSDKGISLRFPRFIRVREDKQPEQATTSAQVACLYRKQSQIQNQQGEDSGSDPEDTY

As to `C[C@@H]1C/C=C/C=C/C=C/C=C/[C@H](O[C@@H]2O[C@H](C)[C@@H](O)[C@H](N)[C@@H]2O)C[C@@H]2O[C@](O)(C[C@@H](O)C[C@H]3O[C@@H]3/C=C/C(=O)O1)C[C@H](O)[C@H]2C(=O)O` [natamycin], the “BER capacity and production of the BER repair product” value in data set [1] is “significantly reduced BER capacity”. Moreover, the “toxicity (cell viability) in LAPC4” value in the data set with LAPC4 cells is on record as “highest toxicity”. Also, the “PNT1A cell proliferation, concentration dependence” value in the data set on PNT1A cells (1 μM and 0.1 μM, both CSS and FBS medium) is given as “inhibited only with 10 μM”. In addition, the “time of treatment at which effect on PNT1A proliferation became evident” value in the data set on PNT1A cells (FBS and CSS media) worked out at 42 h. Moreover, the PNT1A proliferation result in the data set with PNT1A cells (both FBS and CSS supplemented media) was “proliferated in the presence of all inhibitors except natamycin”. Besides, the “reduction of the activity of LIG I” value on LIG I (0.5 μM natamycin) and on LIG I (at 1 (unit not given) natamycin) was 3.5 fold each time. Also, the “decrease of the activity of LIG I” value at LIG I (5 μM natamycin) is given as 14 fold. Further, in the data set with LAPC4 xenograft (LAPC4 xenograft, intravenously, 4 weeks), the “toxicity for prostate cancer cells in a mouse model” value is “specific toxicity for prostate cancer cells”. Besides, in the data set on LAPC4 xenograft (mouse, in vivo, iv), the “tolerability by noncancerous tissues in a mouse model” value was “well-tolerated”. Moreover, the “pol β 1 nt gap-filling synthesis” value on pol β (FIG. 8B, lanes 5-7) is reported as “did not inhibit”. Also, the “pol β strand-displacement synthesis” value at pol β (at 2 nM-5 nM) is listed as “significant inhibitory effect”. Moreover, on pol β (at 10 (unit not given) natamycin, 5 nM pol β), the “reduction of pol β activity” value is on record as 3 fold.
